From article PMC5564600 (Oncotarget, 2017)
In brackets after ≈: the same amount, converted by molar mass.

Legend:
[1] = Plasma pharmacokinetics of SN32976 and stable major metabolites in mice (30 mg/kg oral); conditions: mouse plasma, 30 mg/kg SN32976 oral gavage
PI3Kγ = PI3Kγ (Homo sapiens, UniProt P48736); experiment: PI3K (human) HTRF assay, PI3Kγ; format: biochemical; conditions: ATP 10 μM, mean ± SEM
mTOR = mTOR (Homo sapiens, UniProt P42345); experiment: SelectScreen Z'LYTE kinase assay (Invitrogen), mTOR; format: biochemical; conditions: determined by Invitrogen, mean ± SEM, n=2
[2] = Metabolite identification in human liver microsomes; format: in vitro ADME; conditions: 10 μM SN32976, 60 min
Protocol: (§1) The reaction was quenched by mixing samples with acetonitrile and internal standard. […] Observation of parent compound and metabolites was achieved using electrospray ionization while performing a mass scan from 300-750 m/z. For observed peaks, the m/z was determined and product ion scans were carried out.

[3] = Metabolite identification in monkey liver microsomes; format: in vitro ADME, Cynomolgus monkey; conditions: 10 μM SN32976, 60 min
Protocol: as §1

[4] = Metabolite identification in mouse liver microsomes; format: in vitro ADME; conditions: 10 μM SN32976, 60 min
Protocol: as §1

[5] = Metabolite identification in dog liver microsomes; format: in vitro ADME; conditions: 10 μM SN32976, 60 min
Protocol: as §1

[6] = Metabolite identification in rat liver microsomes; format: in vitro ADME; conditions: 10 μM SN32976, 60 min
Protocol: as §1

PI3Kα [7] = molecular target: PI3Kα (Homo sapiens, UniProt P42336); experiment: PI3K (human) HTRF assay, PI3Kα; format: biochemical
Sequence of PI3Kα (Homo sapiens, UniProt P42336) (P42336 whole entry): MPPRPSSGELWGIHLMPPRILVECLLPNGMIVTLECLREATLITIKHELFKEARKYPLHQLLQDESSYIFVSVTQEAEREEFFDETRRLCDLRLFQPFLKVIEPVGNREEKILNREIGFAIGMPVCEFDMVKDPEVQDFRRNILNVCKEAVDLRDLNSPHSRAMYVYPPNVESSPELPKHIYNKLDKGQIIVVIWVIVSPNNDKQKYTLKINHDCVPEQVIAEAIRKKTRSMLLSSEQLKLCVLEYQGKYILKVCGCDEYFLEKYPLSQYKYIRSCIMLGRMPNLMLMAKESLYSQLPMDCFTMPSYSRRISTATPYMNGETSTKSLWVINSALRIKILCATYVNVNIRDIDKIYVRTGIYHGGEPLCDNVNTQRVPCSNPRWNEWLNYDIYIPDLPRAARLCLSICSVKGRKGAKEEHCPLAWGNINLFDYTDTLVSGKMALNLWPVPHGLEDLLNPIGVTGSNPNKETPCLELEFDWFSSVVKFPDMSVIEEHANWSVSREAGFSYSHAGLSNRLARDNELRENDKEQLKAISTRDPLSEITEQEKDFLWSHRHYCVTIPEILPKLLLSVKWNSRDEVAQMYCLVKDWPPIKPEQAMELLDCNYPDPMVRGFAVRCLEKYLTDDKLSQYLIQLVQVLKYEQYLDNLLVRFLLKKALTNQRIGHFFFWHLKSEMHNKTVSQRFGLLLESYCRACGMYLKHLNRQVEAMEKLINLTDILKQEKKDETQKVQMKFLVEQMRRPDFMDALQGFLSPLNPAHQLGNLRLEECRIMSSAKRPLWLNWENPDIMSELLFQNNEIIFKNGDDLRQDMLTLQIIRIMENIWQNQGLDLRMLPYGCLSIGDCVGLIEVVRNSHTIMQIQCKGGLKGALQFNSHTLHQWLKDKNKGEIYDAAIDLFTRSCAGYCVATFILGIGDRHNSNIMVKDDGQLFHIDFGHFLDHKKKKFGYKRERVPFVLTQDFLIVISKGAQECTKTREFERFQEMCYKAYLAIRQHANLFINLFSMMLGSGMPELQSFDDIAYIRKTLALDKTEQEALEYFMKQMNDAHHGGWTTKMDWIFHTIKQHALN
Sequence of PI3Kα (Homo sapiens, UniProt P42336) (P27986 whole entry partner): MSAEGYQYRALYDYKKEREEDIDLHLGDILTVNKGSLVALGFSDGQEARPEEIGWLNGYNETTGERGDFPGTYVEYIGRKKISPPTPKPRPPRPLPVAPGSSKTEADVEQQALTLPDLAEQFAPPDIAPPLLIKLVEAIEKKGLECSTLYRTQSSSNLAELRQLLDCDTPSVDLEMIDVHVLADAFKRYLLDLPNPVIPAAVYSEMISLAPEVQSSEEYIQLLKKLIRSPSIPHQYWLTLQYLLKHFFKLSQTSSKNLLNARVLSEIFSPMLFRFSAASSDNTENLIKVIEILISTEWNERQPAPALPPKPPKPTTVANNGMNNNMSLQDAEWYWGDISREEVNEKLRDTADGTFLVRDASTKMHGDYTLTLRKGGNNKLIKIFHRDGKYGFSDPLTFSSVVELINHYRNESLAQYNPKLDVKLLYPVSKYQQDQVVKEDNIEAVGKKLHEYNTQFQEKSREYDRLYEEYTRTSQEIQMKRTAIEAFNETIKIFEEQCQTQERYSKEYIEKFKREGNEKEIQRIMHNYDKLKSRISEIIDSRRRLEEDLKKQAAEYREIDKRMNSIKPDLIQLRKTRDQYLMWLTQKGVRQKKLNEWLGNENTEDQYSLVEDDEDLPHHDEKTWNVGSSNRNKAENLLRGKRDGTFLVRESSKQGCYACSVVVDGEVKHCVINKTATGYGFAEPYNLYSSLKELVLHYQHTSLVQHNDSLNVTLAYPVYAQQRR

PI3Kδ = PI3Kδ (Homo sapiens, UniProt O00329); experiment: PI3K (human) HTRF assay, PI3Kδ; format: biochemical; conditions: ATP 10 μM, mean ± SEM
[8] = Tumor and plasma concentrations of SN32976 and major metabolites in mice with U-87 MG tumors after multiple doses; conditions: multiple doses of 100 mg/kg SN32976
PI3Kβ = PI3Kβ (Homo sapiens, UniProt P42338); experiment: PI3K (human) HTRF assay, PI3Kβ; format: biochemical; conditions: ATP 10 μM, mean ± SEM
Sequence of PI3Kβ (P42338 whole entry): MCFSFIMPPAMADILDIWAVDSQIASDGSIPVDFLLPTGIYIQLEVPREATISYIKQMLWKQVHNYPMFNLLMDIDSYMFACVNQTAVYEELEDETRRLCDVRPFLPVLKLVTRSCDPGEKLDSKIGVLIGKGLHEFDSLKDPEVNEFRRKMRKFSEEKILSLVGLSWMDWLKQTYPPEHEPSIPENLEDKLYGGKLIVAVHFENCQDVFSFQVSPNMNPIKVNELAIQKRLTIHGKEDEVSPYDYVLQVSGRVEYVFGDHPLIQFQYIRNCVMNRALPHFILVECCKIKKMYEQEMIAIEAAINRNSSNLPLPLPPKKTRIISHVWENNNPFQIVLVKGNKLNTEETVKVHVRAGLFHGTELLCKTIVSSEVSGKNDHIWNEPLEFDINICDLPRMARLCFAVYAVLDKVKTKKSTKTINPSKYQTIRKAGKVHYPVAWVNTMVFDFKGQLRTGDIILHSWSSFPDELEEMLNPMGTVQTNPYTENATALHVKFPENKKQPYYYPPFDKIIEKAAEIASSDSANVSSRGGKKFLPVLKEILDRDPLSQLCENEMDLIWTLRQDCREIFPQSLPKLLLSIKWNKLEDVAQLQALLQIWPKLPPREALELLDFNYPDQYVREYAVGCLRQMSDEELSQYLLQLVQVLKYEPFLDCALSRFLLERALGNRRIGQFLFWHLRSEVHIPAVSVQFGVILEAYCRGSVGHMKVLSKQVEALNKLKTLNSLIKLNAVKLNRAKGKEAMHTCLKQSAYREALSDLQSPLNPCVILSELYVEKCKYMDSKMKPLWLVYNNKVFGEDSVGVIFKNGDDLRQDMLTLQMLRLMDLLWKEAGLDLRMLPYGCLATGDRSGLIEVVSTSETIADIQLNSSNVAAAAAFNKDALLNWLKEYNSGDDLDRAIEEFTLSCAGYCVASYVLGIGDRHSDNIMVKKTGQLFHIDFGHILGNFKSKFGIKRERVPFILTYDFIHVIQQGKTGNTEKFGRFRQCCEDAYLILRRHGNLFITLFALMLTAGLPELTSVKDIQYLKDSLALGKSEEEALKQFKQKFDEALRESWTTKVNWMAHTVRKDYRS
Sequence of PI3Kβ (P27986 whole entry partner): as the sequence (P27986 whole entry partner) above

[9] = Plasma pharmacokinetics in rats; conditions: male, Sprague-Dawley, rat, po, 10 mg/kg
CYP1A2 [10] = molecular target: T1, CYP1A2 (Homo sapiens, UniProt P05177); experiment: Cytochrome P450 inhibition in human liver microsomes, CYP1A2; format: in vitro ADME; conditions: read-out: CYP inhibition 1A2 IC50
T1 construct: was evaluated in human liver microsomes incubated with SN32976; tissue Cyprotex (contract research organization); host or cells: human liver microsomes

CYP1A2 [11] = experiment: Cytochrome P450 induction in cultured hepatocytes (mRNA, qRT-PCR), CYP1A2; format: in vitro ADME; conditions: at 10 μM, hepatocytes 72 h, mean ± SD
CYP2B6 = experiment: Cytochrome P450 induction in cultured hepatocytes (mRNA, qRT-PCR), CYP2B6; format: in vitro ADME; conditions: at 10 μM, hepatocytes 72 h, mean ± SD
CYP2C9 = molecular target: T2, CYP2C9 (Homo sapiens, UniProt P11712); experiment: Cytochrome P450 inhibition in human liver microsomes, CYP2C9; format: in vitro ADME; conditions: mean ± SD, read-out: CYP inhibition 2C9 IC50
T2 construct: was evaluated in human liver microsomes incubated with SN32976; tissue Cyprotex (contract research organization); host or cells: human liver microsomes

CYP2D6 = molecular target: T3, CYP2D6 (Homo sapiens, UniProt P10635); experiment: Cytochrome P450 inhibition in human liver microsomes, CYP2D6; format: in vitro ADME; conditions: read-out: CYP inhibition 2D6 IC50
T3 construct: was evaluated in human liver microsomes incubated with SN32976; tissue Cyprotex (contract research organization); host or cells: human liver microsomes
T3 sequence (P10635 whole entry): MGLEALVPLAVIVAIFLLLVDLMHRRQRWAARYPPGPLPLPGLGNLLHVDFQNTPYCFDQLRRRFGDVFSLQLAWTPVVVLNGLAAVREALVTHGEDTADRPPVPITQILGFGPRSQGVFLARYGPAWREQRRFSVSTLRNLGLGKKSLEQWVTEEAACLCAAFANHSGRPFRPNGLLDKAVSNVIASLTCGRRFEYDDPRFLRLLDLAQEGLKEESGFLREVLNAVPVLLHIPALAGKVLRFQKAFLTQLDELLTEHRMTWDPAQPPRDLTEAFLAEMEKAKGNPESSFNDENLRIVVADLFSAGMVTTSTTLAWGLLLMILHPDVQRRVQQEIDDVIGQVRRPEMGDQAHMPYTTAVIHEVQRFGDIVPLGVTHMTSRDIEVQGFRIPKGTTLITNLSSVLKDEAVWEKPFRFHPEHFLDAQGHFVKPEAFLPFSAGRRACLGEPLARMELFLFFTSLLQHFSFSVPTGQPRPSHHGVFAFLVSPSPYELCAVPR

CYP3A4 [12] = experiment: Cytochrome P450 induction in cultured hepatocytes (mRNA, qRT-PCR), CYP3A4; format: in vitro ADME; conditions: at 10 μM, hepatocytes 72 h, mean ± SD
[13] = Rat dose proportionality study (oral); conditions: male, Sprague-Dawley, plasma
[14] = Plasma pharmacokinetics in dogs; conditions: male, Beagle, dog, po, 10 mg/kg
CYP3A4 [15] = molecular target: T4, CYP3A4 (Homo sapiens, UniProt P08684); experiment: Cytochrome P450 inhibition in human liver microsomes, CYP3A4; format: in vitro ADME; conditions: read-out: CYP inhibition 3A4 IC50
T4 construct: was evaluated in human liver microsomes incubated with SN32976; tissue Cyprotex (contract research organization); host or cells: human liver microsomes

PIK3C2B = molecular target: T5, PIK3C2B (Homo sapiens, UniProt O00750); experiment: KINOMEscan, PIK3C2B; format: binding; conditions: 10 μM
T5 construct: purchased Ambit Biosciences (scanMAXX KINOMEscan)

[16] = Plasma pharmacokinetics in mice; conditions: male, CD1, mouse, po, 20 mg/kg
[17] = Solubility in potassium phosphate buffer; format: physicochemical; conditions: aqueous buffer, thermodynamic from solid
PIK3C2G = molecular target: T6, PIK3C2G (Homo sapiens, UniProt O75747); experiment: KINOMEscan, PIK3C2G; format: binding; conditions: 10 μM
T6 construct: purchased Ambit Biosciences (scanMAXX KINOMEscan)
T6 sequence (O75747 1-1486): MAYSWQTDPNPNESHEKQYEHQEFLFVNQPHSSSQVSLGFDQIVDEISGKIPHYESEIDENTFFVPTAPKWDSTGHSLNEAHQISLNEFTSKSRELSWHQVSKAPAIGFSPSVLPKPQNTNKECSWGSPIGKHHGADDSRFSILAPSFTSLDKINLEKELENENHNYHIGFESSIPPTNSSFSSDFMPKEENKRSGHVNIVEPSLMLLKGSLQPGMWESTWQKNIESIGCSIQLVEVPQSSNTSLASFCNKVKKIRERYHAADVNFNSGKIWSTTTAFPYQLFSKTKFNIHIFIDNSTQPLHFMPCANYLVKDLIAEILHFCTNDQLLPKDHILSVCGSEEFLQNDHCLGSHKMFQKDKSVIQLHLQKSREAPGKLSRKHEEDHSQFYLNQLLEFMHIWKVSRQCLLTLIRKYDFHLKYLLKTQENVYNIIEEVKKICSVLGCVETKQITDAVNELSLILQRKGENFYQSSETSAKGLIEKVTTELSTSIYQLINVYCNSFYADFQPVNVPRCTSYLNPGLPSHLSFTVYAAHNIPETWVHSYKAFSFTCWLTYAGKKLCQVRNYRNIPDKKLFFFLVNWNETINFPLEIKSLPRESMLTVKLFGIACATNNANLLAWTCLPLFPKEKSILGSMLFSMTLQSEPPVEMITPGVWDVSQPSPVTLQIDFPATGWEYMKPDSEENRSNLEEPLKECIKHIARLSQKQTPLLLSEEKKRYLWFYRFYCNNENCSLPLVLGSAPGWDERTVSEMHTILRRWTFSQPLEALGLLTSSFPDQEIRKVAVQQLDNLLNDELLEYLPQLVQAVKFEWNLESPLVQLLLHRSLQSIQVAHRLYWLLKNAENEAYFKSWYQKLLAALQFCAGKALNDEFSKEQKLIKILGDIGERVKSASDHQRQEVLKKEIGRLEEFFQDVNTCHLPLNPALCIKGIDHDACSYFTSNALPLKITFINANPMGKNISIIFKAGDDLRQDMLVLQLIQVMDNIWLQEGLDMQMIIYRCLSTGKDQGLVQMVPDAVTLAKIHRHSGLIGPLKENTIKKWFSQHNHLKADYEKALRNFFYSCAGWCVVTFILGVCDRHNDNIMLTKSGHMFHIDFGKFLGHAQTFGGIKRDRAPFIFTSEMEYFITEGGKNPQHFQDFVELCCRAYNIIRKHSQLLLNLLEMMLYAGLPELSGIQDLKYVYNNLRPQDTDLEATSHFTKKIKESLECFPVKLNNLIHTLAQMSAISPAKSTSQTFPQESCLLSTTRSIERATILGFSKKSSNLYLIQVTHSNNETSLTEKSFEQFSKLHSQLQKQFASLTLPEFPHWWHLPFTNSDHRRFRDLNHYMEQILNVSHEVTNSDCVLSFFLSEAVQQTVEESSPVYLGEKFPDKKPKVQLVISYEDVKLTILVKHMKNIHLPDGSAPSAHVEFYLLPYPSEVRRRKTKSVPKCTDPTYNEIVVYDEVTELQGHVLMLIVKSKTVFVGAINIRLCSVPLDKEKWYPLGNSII

CYP2C19 = molecular target: T7, CYP2C19 (Homo sapiens, UniProt P33261); experiment: Cytochrome P450 inhibition in human liver microsomes, CYP2C19; format: in vitro ADME; conditions: read-out: CYP inhibition 2C19 IC50
T7 construct: was evaluated in human liver microsomes incubated with SN32976; tissue Cyprotex (contract research organization); host or cells: human liver microsomes
T7 sequence (P33261 whole entry): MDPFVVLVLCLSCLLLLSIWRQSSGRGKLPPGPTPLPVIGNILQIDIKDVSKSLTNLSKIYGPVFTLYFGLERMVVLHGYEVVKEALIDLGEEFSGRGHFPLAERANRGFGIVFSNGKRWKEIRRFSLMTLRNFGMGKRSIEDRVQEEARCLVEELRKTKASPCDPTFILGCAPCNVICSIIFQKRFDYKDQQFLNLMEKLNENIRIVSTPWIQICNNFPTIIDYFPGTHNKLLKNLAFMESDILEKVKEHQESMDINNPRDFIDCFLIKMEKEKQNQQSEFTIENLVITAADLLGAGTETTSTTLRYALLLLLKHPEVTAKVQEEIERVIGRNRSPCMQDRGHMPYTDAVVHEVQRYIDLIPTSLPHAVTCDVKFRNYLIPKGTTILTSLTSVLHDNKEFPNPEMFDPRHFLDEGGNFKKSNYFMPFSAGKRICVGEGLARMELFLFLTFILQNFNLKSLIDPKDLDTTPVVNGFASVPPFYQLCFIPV

PI3Kα [18] = test system: PI3Kα; parameters: method as in PMID 23726034, PMID 23275335; conditions: cited from earlier work

Sequence of PI3Kγ (P48736 whole entry): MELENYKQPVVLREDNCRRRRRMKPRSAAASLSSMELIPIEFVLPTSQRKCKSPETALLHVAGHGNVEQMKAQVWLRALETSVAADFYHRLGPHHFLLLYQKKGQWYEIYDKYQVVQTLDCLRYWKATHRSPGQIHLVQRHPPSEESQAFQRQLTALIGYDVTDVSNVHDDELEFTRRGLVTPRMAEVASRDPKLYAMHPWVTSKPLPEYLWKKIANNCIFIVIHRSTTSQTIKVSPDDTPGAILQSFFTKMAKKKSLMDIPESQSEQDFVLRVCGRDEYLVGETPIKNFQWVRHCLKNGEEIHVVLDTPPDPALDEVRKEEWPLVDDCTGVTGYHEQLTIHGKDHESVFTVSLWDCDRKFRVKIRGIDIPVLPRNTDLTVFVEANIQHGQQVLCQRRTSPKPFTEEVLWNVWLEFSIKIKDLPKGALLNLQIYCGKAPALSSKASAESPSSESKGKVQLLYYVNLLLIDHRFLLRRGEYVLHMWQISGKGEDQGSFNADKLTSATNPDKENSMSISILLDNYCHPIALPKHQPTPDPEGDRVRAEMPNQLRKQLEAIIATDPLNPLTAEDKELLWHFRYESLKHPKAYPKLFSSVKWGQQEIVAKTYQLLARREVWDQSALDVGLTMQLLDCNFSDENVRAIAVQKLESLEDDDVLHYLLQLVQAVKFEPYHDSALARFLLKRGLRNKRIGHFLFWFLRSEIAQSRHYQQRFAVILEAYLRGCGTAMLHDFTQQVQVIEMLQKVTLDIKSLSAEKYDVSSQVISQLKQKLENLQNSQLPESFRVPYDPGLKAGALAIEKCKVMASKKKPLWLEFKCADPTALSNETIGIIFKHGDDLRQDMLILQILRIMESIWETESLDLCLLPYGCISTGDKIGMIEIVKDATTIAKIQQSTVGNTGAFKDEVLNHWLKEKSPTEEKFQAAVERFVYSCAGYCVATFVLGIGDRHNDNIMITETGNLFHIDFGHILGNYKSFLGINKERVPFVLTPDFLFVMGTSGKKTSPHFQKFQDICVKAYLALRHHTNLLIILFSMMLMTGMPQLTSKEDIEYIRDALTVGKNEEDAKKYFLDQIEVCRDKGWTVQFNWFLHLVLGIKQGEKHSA

COc1cccc2c1nc(C(F)F)n2-c1nc(N2CCOCC2)nc(N2CCN(S(=O)(=O)CCN)CC2)n1 [M8]
contribution to combined plasma AUC [1]: 0.13% | IC50 (PI3Kγ): 0.068 ± 0.0186 µM

CNCCS(=O)(=O)N1CCN(c2nc(N3CCOCC3)nc(-n3c(C(F)F)nc4c(OC)cccc43)n2)CC1 [M9]
contribution to combined plasma AUC [1]: 27.1% | IC50 (mTOR): 0.244 ± 0.056 µM | IC50 (PI3Kγ): 0.0903 ± 0.0171 µM

COc1cccc2c1nc(C(F)F)n2-c1nc(N2CCOCC2)nc(N2CCN(S(=O)(=O)CC[N+](C)(C)[O-])CC2)n1 [M10]
metabolite quantity in liver microsomes (relative peak area class) [2]: trace (trace (<1% relative peak areas in the total ion chromatograph)) | metabolite quantity in liver microsomes (relative peak area class) [3]: minor (minor (1-10% relative peak areas)) | metabolite quantity in liver microsomes (relative peak area class) [4]: major (major (>10% relative peak areas)) | metabolite quantity in liver microsomes (relative peak area class) [5]: minor (minor (1-10% relative peak areas)) | metabolite quantity in liver microsomes (relative peak area class) [6]: major (major (>10% relative peak areas))

C=CS(=O)(=O)N1CCN(c2nc(N3CCOCC3)nc(-n3c(C(F)F)nc4c(OC)cccc43)n2)CC1 [M17]
contribution to combined plasma AUC [1]: 1.0% | IC50 (mTOR): 0.0749 ± 0.0251 µM | metabolite quantity in liver microsomes (relative peak area class) [2]: major (major (>10% relative peak areas)) | IC50 (PI3Kγ): 0.0263 ± 0.0026 µM | metabolite quantity in liver microsomes (relative peak area class) [3]: major (major (>10% relative peak areas)) | IC50 (PI3Kα [7]; HTRF assay, ATP 10 μM, mean ± SEM): 0.0062 ± 0.0005 µM | selectivity for PI3Kα over all other PI3K isoforms and mTOR (PI3Kα [7]; ratio of biochemical IC50): 4.2 fold | metabolite quantity in liver microsomes (relative peak area class) [4]: major (major (>10% relative peak areas)) | IC50 (PI3Kδ): 0.055 ± 0.0241 µM | metabolite AUC relative to parent in plasma [8]: 8.8 % of parent | metabolite AUC relative to parent in tumor [8]: 2.4 % of parent | metabolite quantity in liver microsomes (relative peak area class) [5]: major (major (>10% relative peak areas)) | metabolite quantity in liver microsomes (relative peak area class) [6]: major (major (>10% relative peak areas)) | IC50 (PI3Kβ): > 1 µM | IC50 PI3Kβ (PI3Kβ): lacked activity

COc1cccc2c1nc(C(F)F)n2-c1nc(N2CCOCC2)nc(N2CCN(S(=O)(=O)CCN(C)C)CC2)n1 [SN32976, 2-((4-(4-(2-(difluoromethyl)-4-methoxy-1H-benzo[d]imidazol-1-yl)-6-morpholino-1,3,5-triazin-2-yl)piperazin-1-yl)sulfonyl)-N, N-dimethylethan-1-amine]
AUC [9]: 0.579 µM·h | bioavailability [9]: 8.1% | IC50 (CYP1A2 [10]): > 25 µM | CYP induction 1A2 (CYP1A2 [11]): 1.27 ± 0.01 | CYP induction 2B6 (CYP2B6): 0.31 ± 0.01 | contribution to combined plasma AUC [1]: 71.8% | IC50 (mTOR): 0.194 ± 0.055 µM | IC50 (CYP2C9): 20 µM | IC50 (CYP2D6): > 25 µM | CYP induction 3A4 (CYP3A4 [12]): 1.39 ± 0.21 | IC50 (PI3Kγ): 0.11 ± 0.041 µM | AUC ([13]; 10 mg/kg): 0.417 µM·h | Cmax ([13]; 10 mg/kg): 34.1 nM | Tmax ([13]; 10 mg/kg): 4 h | half-life ([13]; 10 mg/kg): 2.27 h | AUC ([13]; 30 mg/kg): 1.07 µM·h | Cmax ([13]; 30 mg/kg): 125 nM | Tmax ([13]; 30 mg/kg): 1 h | half-life ([13]; 30 mg/kg): 4.62 h | AUC ([13]; 100 mg/kg): 16.4 µM·h | Cmax ([13]; 100 mg/kg): 893 nM | Tmax ([13]; 100 mg/kg): 1 h | half-life ([13]; 100 mg/kg): 9.77 h | AUC ([13]; 300 mg/kg): 139 µM·h | Cmax ([13]; 300 mg/kg): 6810 nM | Tmax ([13]; 300 mg/kg): 4 h | AUC [14]: 3.22 µM·h | bioavailability [14]: 35.9% | IC50 (CYP3A4 [15]): > 25 µM | off-target activity against PIK3C2B (PIK3C2B): off-target activity | AUC [16]: 2.5 µM·h | bioavailability [16]: 33.4% | solubility ([17]; pH 2.0): > 100000 µM | solubility ([17]; pH 7.4, mean ± SD): 11.2 µM (≈ 6.51 µg/mL) | off-target activity against PIK3C2G (PIK3C2G): off-target activity | IC50 (CYP2C19): > 25 µM

Cc1nc(NC(=O)N2CCC[C@H]2C(N)=O)sc1-c1ccnc(C(C)(C)C(F)(F)F)c1 [alpelisib]
selectivity for PI3Kα over other class I PI3K isoforms and mTOR (PI3Kα [18]): > 50 fold

Nc1nc2cc(-c3ccc4ncc(C(=O)N5CCOCC5)n4c3)ccc2o1 [serabelisib]
selectivity for PI3Kα over other class I PI3K isoforms and mTOR (PI3Kα [18]): > 50 fold
